# Patent US6770597B2, “Benzohydrazide derivatives as herbicides and desiccant compositions containing them” (Ishihara Sangyo Kaisha, Ltd., priority 2002, dated 2004)
# How the values were obtained:
# Assay type in all cases: in vivo
# [1] = test system: barnyardgrass (Echinochloa crus-galli, ECHCG); experiment: Greenhouse herbicide screen, post-emerge application, phytotoxicity rating; settings: POST emergent, 14 days after application, scale 0-100
# Method in brief: (§1)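 Greenhouse pot test with soil-applied or foliar track-sprayer treatment at 15–1000 g ai/ha from acetone solution. Injury, from none (0) to total kill (100), was recorded 14 days after application.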
# [2] = test system: cocklebur (Xanthium strumarium, XANST); experiment: as above; settings: POST emergent, 14 days after application, scale 0-100
# Method in brief: as §1
# [3] = test system: common ragweed (Ambrosia artemisiifolia L., AMBEL); experiment: as above; settings: POST emergent, 14 days after application, scale 0-100
# Method in brief: as §1
# [4] = test system: green foxtail (Setaria viridis, SETVI); experiment: as above; settings: POST emergent, 14 days after application, scale 0-100
# Method in brief: as §1
# [5] = test system: ivyleaf morningglory (Ipomoea hederacea, IPOHE); experiment: as above; settings: POST emergent, 14 days after application, scale 0-100
# Method in brief: as §1
# [6] = test system: johnsongrass (Sorghum halepense, SORHA); experiment: as above; settings: POST emergent, 14 days after application, scale 0-100
# Method in brief: as §1
# [7] = test system: lambsquarters (Chenopodium album, CHEAL); experiment: as above; settings: POST emergent, 14 days after application, scale 0-100
# Method in brief: as §1
# [8] = test system: large crabgrass (Digitaria sanguinalis, DIGSA); experiment: as above; settings: POST emergent, 14 days after application, scale 0-100
# Method in brief: as §1
# [9] = test system: redroot pigweed (Amaranthus retrofiexus, AMARE); experiment: as above; settings: POST emergent, 14 days after application
# Method in brief: as §1
# [10] = test system: sicklepod (Cassia obtusifolia, CASOB); experiment: as above; settings: POST emergent, 14 days after application, scale 0-100
# Method in brief: as §1
# [11] = test system: velvetleaf (Abutilon theophrasti, ABUTH); experiment: as above; settings: POST emergent, 14 days after application, scale 0-100
# Method in brief: as §1
# [12] = test system: field corn (Zea mays L., var. Dekalb 535, CORN); experiment: Greenhouse herbicide screen, post-emerge application, crop damage rating; settings: POST emergent, 14 days after application, scale 0-100
# Text: (§2) A standard greenhouse herbicide activity screening system was used to evaluate the herbicidal efficacy and crop safety of these test compounds. Seven broadleaf weed species including redroot pigweed (Amaranthus retrofiexus, AMARE), velvetleaf (Abutilon theophrasti, ABUTH), sicklepod (Cassia obtusifolia, CASOB), ivyleaf morningglory (Ipomoea hederacea, IPOHE), lambsquarters (Chenopodium album, CHEAL), common ragweed (Ambrosia artemisiifolia L., AMBEL), and cocklebur (Xanthium strumarium, XANST) were used as test species. Four grass weed species including green foxtail (Setaria viridis, SETVI), barnyardgrass (Echinochloa crus-galli, ECHCG), johnsongrass (Sorghum halepense, SORHA), and large crabgrass (Digitaria sanguinalis, DIGSA) were also used. In addition, four crop species, field corn (Zea mays L., var. Dekalb 535, CORN), soybean (Glycine max L., var. Pella 86, SOY), upland rice (Oryza sp., var.Cocodrie, RICE) and wheat (Triticum aestivum L.) were included.
# (§3) All plants were grown in 10 cm square plastic pots which were filled with a sandy loam soil mix. For pre-emerge tests, seeds were planted one day prior to application of the test compounds. For post-emerge tests, seeds were planted 8-21 days prior to the test to allow emergence and good foliage development prior to application of the test substances. At the time of the post-emerge application, plants of all species were usually at the 2-3 leaf stage of development.
# (§4) All test compounds were dissolved in acetone and applied to the test units in a volume of 187 l/ha. Test materials were applied at rates ranging from 15 g ai/ha to 1000 g ai/ha using a track sprayer equipped with a TJ8001E even flow flat fan spray nozzle. Plants were arranged on a shelf so that the top of the canopy (post-emerge) or top of the soil surface (pre-emerge) was 40-45 cm below the nozzle. Pressurized air was used to force the test solution through the nozzle as it was mechanically advanced (via electrically driven chain drive) over the top of all test plants/pots. This application simulates a typical commercial field herbicide application.
# (§5) Pre-emergence tests were top watered immediately after treatment to incorporate the test materials, then routinely top-watered for normal growth. Post-emerge test units were always bottom-watered.
# (§6) At 14 days after application of the test materials, phytotoxicity ratings were recorded. A rating scale of 0-100 was used as previously described in Research Methods in Weed Science, 2nd edition, B. Truelove, Ed., Southern Weed Science Society, Auburn University, Auburn, Ala., 1977. Briefly, “0” corresponds to no damage and “100” corresponds to complete death of all plants in the test unit. This scale was used both to determine efficacy against weed species and damage to crop species. Herbicide activity data for various compounds of this invention, which are shown by compound No. in Tables 1-12, are shown in Tables 13 and 14.
# [13] = test system: upland rice (Oryza sp., var.Cocodrie, RICE); experiment: as above; settings: POST emergent, 14 days after application, scale 0-100
# Text: as §2, §3, §4, §5, §6
# [14] = test system: barnyardgrass (Echinochloa crus-galli, ECHCG); experiment: Greenhouse herbicide screen, pre-emerge application, phytotoxicity rating; settings: PRE emergent, 14 days after application, rating scale 0-100
# Method in brief: as §1
# [15] = test system: cocklebur (Xanthium strumarium, XANST); experiment: as above; settings: PRE emergent, 14 days after application, rating scale 0-100
# Method in brief: as §1
# [16] = test system: common ragweed (Ambrosia artemisiifolia L., AMBEL); experiment: as above; settings: PRE emergent, 14 days after application, rating scale 0-100
# Method in brief: as §1
# [17] = test system: green foxtail (Setaria viridis, SETVI); experiment: as above; settings: PRE emergent, 14 days after application, rating scale 0-100
# Method in brief: as §1
# [18] = test system: ivyleaf morningglory (Ipomoea hederacea, IPOHE); experiment: as above; settings: PRE emergent, 14 days after application, rating scale 0-100
# Method in brief: as §1
# [19] = test system: johnsongrass (Sorghum halepense, SORHA); experiment: as above; settings: PRE emergent, 14 days after application, rating scale 0-100
# Method in brief: as §1
# [20] = test system: lambsquarters (Chenopodium album, CHEAL); experiment: as above; settings: PRE emergent, 14 days after application, rating scale 0-100
# Method in brief: as §1
# [21] = test system: large crabgrass (Digitaria sanguinalis, DIGSA); experiment: as above; settings: PRE emergent, 14 days after application, rating scale 0-100
# Method in brief: as §1
# [22] = test system: redroot pigweed (Amaranthus retrofiexus, AMARE); experiment: as above; settings: PRE emergent, 14 days after application, rating scale 0-100
# Method in brief: as §1
# [23] = test system: sicklepod (Cassia obtusifolia, CASOB); experiment: as above; settings: PRE emergent, 14 days after application, rating scale 0-100
# Method in brief: as §1
# [24] = test system: velvetleaf (Abutilon theophrasti, ABUTH); experiment: as above; settings: PRE emergent, 14 days after application, rating scale 0-100
# Method in brief: as §1
# [25] = test system: field corn (Zea mays L., var. Dekalb 535, CORN); experiment: Greenhouse herbicide screen, pre-emerge application, crop damage rating; settings: PRE emergent, 14 days after application, rating scale 0-100
# Text: as §2, §3, §4, §5, §6
# [26] = test system: upland rice (Oryza sp., var.Cocodrie, RICE); experiment: as above; settings: PRE emergent, 14 days after application, rating scale 0-100
# Text: as §2, §3, §4, §5, §6
smiles,measurement,setting,value
CN1CCN(NC(=O)c2cc(-n3c(=O)cc(C(F)(F)F)n(C)c3=S)c(F)cc2Cl)CC1 [Compound 1-14],phytotoxicity rating ECHCO,[1]; 63 g ai/ha,0
same,phytotoxicity rating ECHCO,[1]; 250 g ai/ha,0
same,phytotoxicity rating XANST,[2]; 63 g ai/ha,70
same,phytotoxicity rating XANST,[2]; 250 g ai/ha,70
same,phytotoxicity rating AMBEL,[3]; 63 g ai/ha,0
same,phytotoxicity rating AMBEL,[3]; 250 g ai/ha,50
same,phytotoxicity rating SETVI,[4]; 63 g ai/ha,0
same,phytotoxicity rating SETVI,[4]; 250 g ai/ha,0
same,phytotoxicity rating IPOHE,[5]; 63 g ai/ha,100
same,phytotoxicity rating IPOHE,[5]; 250 g ai/ha,100
same,phytotoxicity rating SORHA,[6]; 63 g ai/ha,0
same,phytotoxicity rating SORHA,[6]; 250 g ai/ha,0
same,phytotoxicity rating CHEAL,[7]; 63 g ai/ha,0
same,phytotoxicity rating CHEAL,[7]; 250 g ai/ha,70
same,phytotoxicity rating DIGSA,[8]; 63 g ai/ha,0
same,phytotoxicity rating DIGSA,[8]; 250 g ai/ha,0
same,phytotoxicity rating AMARE,"[9]; 63 g ai/ha, scale 0-100 (0 no damage, 100 complete death)",0
same,phytotoxicity rating AMARE,"[9]; 250 g ai/ha, scale 0-100",30
same,phytotoxicity rating CASOB,[10]; 63 g ai/ha,0
same,phytotoxicity rating CASOB,[10]; 250 g ai/ha,0
same,phytotoxicity rating ABUTH,[11]; 63 g ai/ha,0
same,phytotoxicity rating ABUTH,[11]; 250 g ai/ha,35
same,crop damage rating CORN,[12]; 63 g ai/ha,0
same,crop damage rating CORN,[12]; 250 g ai/ha,50
same,crop damage rating RICE,[13]; 63 g ai/ha,0
same,crop damage rating RICE,[13]; 250 g ai/ha,0
same,phytotoxicity rating ECHCG,[14]; 63 g ai/ha,0
same,phytotoxicity rating ECHCG,[14]; 250 g ai/ha,70
same,phytotoxicity rating XANST,[15]; 63 g ai/ha,40
same,phytotoxicity rating XANST,[15]; 250 g ai/ha,65
same,phytotoxicity rating AMBEL,[16]; 63 g ai/ha,35
same,phytotoxicity rating AMBEL,[16]; 250 g ai/ha,70
same,phytotoxicity rating SETVI,[17]; 63 g ai/ha,0
same,phytotoxicity rating SETVI,[17]; 250 g ai/ha,55
same,phytotoxicity rating IPOHE,[18]; 63 g ai/ha,10
same,phytotoxicity rating IPOHE,[18]; 250 g ai/ha,65
same,phytotoxicity rating SORHA,[19]; 63 g ai/ha,70
same,phytotoxicity rating SORHA,[19]; 250 g ai/ha,95
same,phytotoxicity rating CHEAL,[20]; 63 g ai/ha,100
same,phytotoxicity rating CHEAL,[20]; 250 g ai/ha,100
same,phytotoxicity rating DIGSA,[21]; 63 g ai/ha,55
same,phytotoxicity rating DIGSA,[21]; 250 g ai/ha,70
same,phytotoxicity rating AMARE,[22]; 63 g ai/ha,95
same,phytotoxicity rating AMARE,[22]; 250 g ai/ha,100
same,phytotoxicity rating CASOB,[23]; 63 g ai/ha,0
same,phytotoxicity rating CASOB,[23]; 250 g ai/ha,50
same,phytotoxicity rating ABUTH,[24]; 63 g ai/ha,30
same,phytotoxicity rating ABUTH,[24]; 250 g ai/ha,90
same,crop damage rating CORN,[25]; 63 g ai/ha,0
same,crop damage rating CORN,[25]; 250 g ai/ha,0
same,crop damage rating RICE,[26]; 63 g ai/ha,0
same,crop damage rating RICE,[26]; 250 g ai/ha,50
